Results on two molecules are retold here after patent US20260152527A1, “NOVEL MELANOCORTIN ANALOGS” (priority 2022, published 2026).

Data set [1] can be described thus: Thermodynamic solubility study in water. The data set is classed as physicochemical. Here is the method: The study was conducted in water. Water was added into compound powder to make a 10 mg/mL solution. Sample tubes were shaken at the vibrator for 1 hour (1000 rpm) and then equilibrated overnight at room temperature. Samples were centrifuged at 12000 rpm for 10 min to precipitate undissolved particles. Supernatants were transferred from tubes to a new plate. An aliquot of the supernatant after centrifugation was taken from each well, then analyzed by LC-MS/MS. The concentration of the supernatants was quantified by a standard curve.

For data set [2] the following is noted: rabbit.
Description: (§1) To evaluate the effects of the peptide formulations following topical administration and subconjunctival injection a study in rabbits was undertaken. Animals were acclimated to the study and, upon completion of the acclimation period, each animal was physically examined for determination of suitability for study participation. Animals determined to be in good health were randomized into study groups to achieve averaged mean body weight in each group. (N=24; 3 animals per study group) Animals will be uniquely identified by corresponding cage card number and ear tag.
(§2) For topical ocular dosing the designated peptide formulations (35 L) were administered to the eye of each animal using a calibrated pipette. With the animal manually restrained, the upper eyelid of the eye was gently elevated to expose the cornea. Treatment was then be applied to the cornea without contacting the eye with the pipette tip. One topical drop was applied per eye for four days. Tissue collection (aqueous humor) occurred 30 minutes after last dose.
(§3) A veterinary ophthalmologist performed complete ocular examinations using a slit lamp biomicroscope and indirect ophthalmoscope to evaluate ocular surface morphology and anterior and posterior segment inflammation on all animals prior to injection to serve as a baseline for enrollment into the study as well as on specific study days. Animals were not tranquilized for the examinations.
(§4) At least 1.0 mL of whole blood was drawn from the marginal ear vein or cardiac puncture (terminal bleed only) into K2EDTA tubes for plasma collection. After collection, the tubes were gently mixed by inverting the tubes 5-8 times. Blood samples were stored on wet ice prior to plasma processing. The samples were centrifuged at 4° C. for 10 minutes at 2000 g in a swinging bucket refrigerated centrifuge. Within 20 minutes of the blood collection time, the clear plasma was transferred to prelabelled polypropylene tubes, snap frozen, and stored frozen at approximately −80° C.
(§5) Following euthanasia, eyes were enucleated and marked at the 12:00 position. Aqueous humor was removed via a 27 or 30 gauge syringe following a 10-15 second rinse with PBS and blot with Kimwipe, and snap frozen by immersing in liquid nitrogen. The whole globe was then snap frozen in liquid nitrogen and stored at −80° C. to be held for potential dissection. All samples were placed into individual vials and weighed. The plasma and aqueous humor were collected.
(§6) The peptides were evaluated for their ocular tolerability and pharmacokinetics following repeated (QID×4 days) topical instillation or a single subconjunctival injection in rabbits. The study examined penetration into the anterior chamber and concentrations in the plasma by measuring at a single time point.
Data set [3] concerns the target T1, human recombinant MC1R (Homo sapiens, UniProt Q01726).
T1 construct: host or cells: CHO-K1
Description: cyclic AMP (cAMP) functional assay, MC1R stable cell line (CHO-K1).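 As to all read-outs here: cells with test compound for 60 min at room temperature in buffer containing IBMX, then cAMP quantified by Eu-cAMP tracer and ULight anti-cAMP detection.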 The data set is classed as cell-based. As to conditions: for IC50: cAMP functional assay.
Description: The cyclic AMP (cAMP) functional assay was performed on a human recombinant MC1R stable cell line (CHO-K1, GenScript). The cells were cultured at 37° C. and 5% CO2 with culture medium (90% Ham's F-12K (Kaighn's)+10% FBS+400 μg/mL G418). […] Then, 100 nL of compounds were transferred to the assay plate by the Echo machine. Cells were washed with PBS and then detached by incubation with 0.05% (w/v) Trypsin EDTA at 37° C. for 2 to 5 mins. Cells were collected with stimulation buffer (1×HBSS with 5 mM HEPES+0.2 mM IBMX+0.1% BSA) and 10 ul of cells (the density of 2,500 cells/well) solution was transferred to assay plate, centrifuged at 600 rpm for 3 min and then incubated with compounds at room temperature for 60 min. After that, 5 μL 4×Eu-cAMP tracer solution and 5 μL 4×ULight™-anti-cAMP solution was added into the cells, centrifuged at 600 rpm for 3 min and incubated for 60 min. The cAMP signal was detected with Envision® Multimode Plate Reader (PerkinElmer).

Data set [4] concerns the target T2, human recombinant MC4R (Homo sapiens, UniProt P32245).
T2 construct: host or cells: CHO-K1/Gα15
The experiment in a line: Ca2+ signalling functional assay, MC4R stable cell line (CHO-K1/Gα15). Type of data set: cell-based.
Description: The Ca^2+ signalling functional assay was performed on a human recombinant MC4R stable cell line (CHO-K1/Gα15, GenScript). The cells were cultured at 37° C. and 5% CO2 with culture medium (90% Ham's F-12K (Kaighn's)+10% FBS+8 μg/mL Puromycin+100 μg/mL Hygromycin B). Cells were washed with PBS and then detached by incubation with 0.05% (w/v) Trypsin EDTA at 37° C. for 2-5 mins. Detached cells were suspended in Ham's F-12K (Kaighn's) (containing 10% FBS) and a 50 μL cell suspension was seeded into each well of a 384-well assay plate at a density of 15,000 cells/well. Cells were allowed to settle overnight at 37° C., 5% CO2. The next day, the assay plate was centrifuged and the media was replaced with dye (1×) in assay buffer (containing HBSS, HEPES 20 mM and probenecid 1 mM) and incubated for 1 h at 37° C. […] Then, 100 nL of compounds were transferred to the compound plate by the Echo machine. 30 μL assay buffer was added to the compounds plate and then shaken for 20 to 40 minutes. The plates were placed on the FLIPR and 15 μL of the compound was added to each well, then calcium flux signal was measured.

For data set [5], the target named is T3, human recombinant MC5R (Homo sapiens, UniProt P33032).
T3 construct: host or cells: CHO-K1/Ga15
The experiment in a line: Ca2+ signalling functional assay, MC5R stable cell line (CHO-K1/Ga15). The data set is classed as cell-based. As to conditions: for IC50: calcium flux functional assay. In general terms: Calcium flux is commonly read through the fluorescence of an indicator in the cells.
Description: The Ca^2+ signalling functional assay was performed on a human recombinant MC5R stable cell line (CHO-K1/Ga15, GenScript). The cells were cultured at 37° C. and 5% C02 with culture medium (90% Ham's F-12K (Kaighn's)+10% FBS+400 μg/mL G418+100 μg/mL Hygromycin B). Cells were washed with PBS and then detached by incubation with 0.05% (w/v) Trypsin EDTA at 37° C. for 2 to 5 mins. Detached cells were suspended in Ham's F-12K (Kaighn's) (containing 10% FBS) and a 50 μL cell suspension is seeded into each well of a 384-well assay plate at a density of 15,000 cells/well. Cells were allowed to settle overnight at 37° C., 5% CO2. […] Then, 100 nL of compounds were transferred to the compound plate by the Echo machine. Thirty microliter assay buffer was added to the compounds plate and then shaken for 20-40 minutes. The plates were placed on the FLIPR and 15 μL of the compound was added to each well, then calcium flux signal was measured.

A short description of data set [6]: In vivo topical administration tissue distribution study, minipig. As to conditions: topical 5 mg/mL BID. Here is the method:
Animals were acclimated to the study environment for a minimum of 1 week. […] Examinations included, but were not limited to, the skin and external ears, eyes, and abdomen, neurological behavior, and general body condition.
Treatment was administered twice daily (BID) with approximately 6-8 hours between each BID dose, with tissue collection one hour after the last dose. Tissues and blood collected include plasma, aqueous humor, iris/ciliary body, vitreous humor, eye cup containing the retinal pigment epithelium, choroid, sclera, cornea, retina, optic nerve, and brain.
Blood (3 mL) was collected IV or ICAR for terminal collections and placed into K2EDTA tubes for plasma acquisition. […] Blood samples were stored on wet ice for up to 30 minutes prior to plasma processing.
Following euthanasia, eyes were enucleated and rinsed twice with fresh ice-cold PBS. Aqueous humor was removed via a 27 or 30 G syringe, weighed in polypropylene screw cap tubes, and snap frozen by immersing in liquid nitrogen. Eyes were dissected while frozen. All tissues were placed into individual vials, weighed, and snap frozen. The brain was collected and weighed. The hypothalamus, hippocampus and remaining brain was then dissected and weighed. 100-200 mg of each section was placed in pre-weighed polypropylene tubes, reweighed, and snap frozen. The remaining tissue was discarded. All tissues were stored frozen at −80° C. on dry ice.
The observed distribution pattern was consistent with that observed in the rat study. […] As also shown in FIG. 14, all three peptides were detected in the CNS of the animals, with no behavioral or metabolic changes noted in these animals despite the significant exposure. The foregoing results therefor confirm that the peptides disclosed herein can be delivered topically for retinal indications.

Data set [7] in a line: in vivo. Particulars: rabbit, topical or ocular, 3 mg/ml solution, 35 L per eye, Concentrations (ng/mL) in Rabbit Aqueous Humor.
Description: as §1, §2, §3, §4, §5, §6

The term solubility denotes the dissolved amount per volume that the medium holds. As usually defined, the EC50 is the concentration needed to bring the measured effect to its halfway point. By IC50 is commonly meant the concentration needed to halve the response being measured.

Molecules are shown by their SMILES. Converted amounts (≈) assume the structure as drawn. Read-outs that look alike come from different tables or passages of the source. Positions of bridges follow the written chain, without caps; N, C: chain ends. Non-standard residues stand in square brackets, D forms with d. Residues, ends and D or L forms follow the SMILES beside them. Triazole bridges read from a SMILES are 1,4-linked. *: point of attachment. Benzoyl(3,5-(OH)2) = O=C(c1cc(O)cc(O)c1)*; Lys(N3) = [N-]=[N+]=NCCCC[C@H](N)C(=O)O; dPhe(4-F) = N[C@H](Cc1ccc(F)cc1)C(=O)O; Aad = N[C@@H](CCCC(=O)O)C(=O)O; Nle = CCCC[C@H](N)C(=O)O; Pra = C#CC[C@H](N)C(=O)O

T1 sequence (Q01726 whole entry): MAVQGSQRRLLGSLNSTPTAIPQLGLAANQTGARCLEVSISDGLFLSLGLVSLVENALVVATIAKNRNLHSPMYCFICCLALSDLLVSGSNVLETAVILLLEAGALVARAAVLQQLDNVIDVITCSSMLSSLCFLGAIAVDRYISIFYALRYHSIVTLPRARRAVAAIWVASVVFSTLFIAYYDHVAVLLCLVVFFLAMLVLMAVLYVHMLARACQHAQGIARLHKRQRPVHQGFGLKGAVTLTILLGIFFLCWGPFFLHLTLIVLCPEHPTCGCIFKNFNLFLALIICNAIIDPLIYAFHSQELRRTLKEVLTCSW
T3 sequence (P33032 whole entry): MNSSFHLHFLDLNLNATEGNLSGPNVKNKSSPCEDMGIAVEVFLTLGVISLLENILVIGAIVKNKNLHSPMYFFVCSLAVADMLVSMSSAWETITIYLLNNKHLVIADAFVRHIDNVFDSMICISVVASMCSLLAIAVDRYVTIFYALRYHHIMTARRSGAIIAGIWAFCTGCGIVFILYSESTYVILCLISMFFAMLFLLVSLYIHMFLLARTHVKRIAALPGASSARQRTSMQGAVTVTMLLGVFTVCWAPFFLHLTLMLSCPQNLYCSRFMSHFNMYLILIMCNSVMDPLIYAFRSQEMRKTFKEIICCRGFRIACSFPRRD
T2 sequence (P32245 whole entry): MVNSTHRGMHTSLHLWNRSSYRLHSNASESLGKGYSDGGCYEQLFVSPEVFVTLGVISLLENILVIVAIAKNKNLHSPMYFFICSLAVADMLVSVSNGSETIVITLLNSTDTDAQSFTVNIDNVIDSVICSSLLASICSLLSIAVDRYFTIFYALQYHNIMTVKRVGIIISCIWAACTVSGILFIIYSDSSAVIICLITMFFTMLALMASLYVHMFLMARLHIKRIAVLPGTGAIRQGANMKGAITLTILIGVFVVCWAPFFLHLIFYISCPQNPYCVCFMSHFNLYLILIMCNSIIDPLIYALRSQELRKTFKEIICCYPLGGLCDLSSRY

The molecule `CCCC[C@H](NC(C)=O)C(=O)N[C@H]1CCCCn2cc(nn2)C[C@@H](C(N)=O)NC(=O)[C@H](Cc2c[nH]c3ccccc23)NC(=O)[C@H](CCCNC(=N)N)NC(=O)[C@@H](Cc2ccc(F)cc2)NC(=O)[C@H](Cc2c[nH]cn2)NC1=O` [KR-049, Ac-Nle-[Lys(N3)-His-Dphe(4-F)-Arg-Trp-Pra]-NH2] (Ac-[Nle][Lys(N3)]H[dPhe(4-F)]RW[Pra]-NH2; triazole 2-7) had a solubility in data set [1] of 9950 µg/mL (≈ 9.33 mM). For the same molecule, the “Topical Ocular Permeability (nM ± SEM)” value in data set [2] is recorded as 23.9 ± 10.8 nM. Also, the EC50 in data set [3] was 0.019 nM; in data set [4], 16.1 nM; in data set [5], 25.2 nM. The results for the half-inhibitory concentration (IC50) in data set [3] and in data set [5] were 0.019 nM and 25.2 nM, respectively. For the same molecule, the melanin binding result in data set [6] (compared with K173 and K174) is listed as “enhanced melanin binding”. For the same molecule, the “scleral and retinal exposure” value in data set [6] (compared with K173 and K174) is “decreased scleral and retinal exposure”. In addition, the corneal permeability entry in data set [6] (similar to rabbit study) is “enhanced corneal permeability”.

In the case of `CCCC[C@H](NC(=O)c1cc(O)cc(O)c1)C(=O)N[C@H]1CCCCn2cc(nn2)C[C@@H](C(=O)N[C@@H](CCCC(N)=O)C(N)=O)NC(=O)[C@H](Cc2c[nH]c3ccccc23)NC(=O)[C@H](CCCNC(=N)N)NC(=O)[C@@H](Cc2ccc(F)cc2)NC(=O)[C@H](Cc2c[nH]cn2)NC1=O` [KR-071, HyBA-Nle-[Lys(N3)-His-Dphe(4-F)-Arg-Trp-Pra]-Hgln-NH2] ({Benzoyl(3,5-(OH)2)}-[Nle][Lys(N3)]H[dPhe(4-F)]RW[Pra][Aad](NH2)-NH2; triazole 2-7), in data set [1] (Table 8, read-out: Solubility), the solubility stood at 6100 µg/mL (≈ 4.68 mM). This molecule registered a level at 0.5 h in data set [7] of 2.84 ng/mL. In addition, the “Topical Ocular Permeability (nM ± SEM)” value in data set [2] was determined as 2.5 ± 0.2 nM. Moreover, the EC50 in data set [3] came to 0.0023 nM; in data set [4], 103 nM; in data set [5], 73.9 nM. Also, the IC50 in data set [3] came to 0.0023 nM; in data set [5] it was 73.9 nM.
